{"source": "patent US9879032B2", "about": "“Pyridine compounds” (Daiichi Sankyo Company, Limited, priority 2015, dated 2018)", "key": {"[1]": {"tested_on": "plasma ALP (80-90% containing TNAP)", "test": "Inhibitory test of plasma TNAP activity in B6 mouse", "assay_type": "in vivo", "details": "administered orally, average inhibition from 0 hour to 6 hours after administration", "method": "After blood sampling from the tail vein using a heparin-treated hematocrit capillary tube (EM Meister Hematocrit Capillary Tube, AS ONE Corp.) (as the sample before compound administration), each test compound suspended in a 0.5% methylcellulose solution (powder purchased from Wako Pure Chemical Industries, Ltd. was adjusted to 0.5% with Otsuka distilled water) was administered orally to the mouse. 1, 2, 4, 6, and 24 hours after the administration, blood was collected from the tail vein using a heparin-treated hematocrit capillary tube to obtain a plasma sample. The plasma sample was added to an assay buffer (1 M Tris, 1 M MgCl2, 20 mM ZnCl2, and water, pH 7.5), and the mixture was left standing for 5 minutes. Then, the absorbance at 405 nm was measured and used as a blank. The substrate pNPP was added to the plasma sample and incubated at room temperature for 180 minutes. Then, the absorbance (ABS: 405 nm) was measured using a microplate reader (model plus 384, Molecular Devices, LLC), and the concentration of produced p-nitrophenol was calculated. The blank was subtracted from all measurement values to calculate TNAP activity at each time point with the TNAP activity of the sample before compound administration defined as 100%. The pharmaceutical effect of the test compound was evaluated by the average inhibition of plasma ALP (80-90% containing TNAP) activity for 6 hours from 0 hour to 6 hours after the administration of the test compound. It was calculated according to the following expression: 100−((plasma ALP activity at 0 hr+plasma ALP activity at 1 hr)*1/2+(plasma ALP activity at 1 hr+plasma ALP activity at 2 hr)*1/2+(plasma ALP activity at 2 hr+plasma ALP activity at 4 hr)*2/2+(plasma ALP activity at 4 hr+plasma ALP activity at 6 hr)*2/2)/6."}, "human TNAP": {"molecular_target": "human TNAP (Homo sapiens (Human), UniProt P05186)", "sequence (P05186 18-502)": "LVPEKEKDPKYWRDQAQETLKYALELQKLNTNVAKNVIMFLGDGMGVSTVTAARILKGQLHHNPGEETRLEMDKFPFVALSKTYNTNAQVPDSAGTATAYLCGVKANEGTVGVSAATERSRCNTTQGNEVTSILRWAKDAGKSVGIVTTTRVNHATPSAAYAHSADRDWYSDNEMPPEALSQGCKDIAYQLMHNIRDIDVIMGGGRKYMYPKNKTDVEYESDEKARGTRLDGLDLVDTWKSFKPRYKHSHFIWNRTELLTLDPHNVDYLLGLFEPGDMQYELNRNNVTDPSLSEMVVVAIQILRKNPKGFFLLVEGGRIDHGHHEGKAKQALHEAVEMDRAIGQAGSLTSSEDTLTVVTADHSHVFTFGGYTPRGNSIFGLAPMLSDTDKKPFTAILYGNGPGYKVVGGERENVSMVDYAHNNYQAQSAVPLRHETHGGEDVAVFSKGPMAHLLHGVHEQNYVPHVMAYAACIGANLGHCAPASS", "test": "Inhibitory test of TNAP activity (pNPP substrate, p-nitrophenol production)", "assay_type": "biochemical", "details": "inhibition of human TNAP activity, incubated at room temperature for 60 minutes", "method": "COS 1 cells (DS Pharma Biomedical Co., Ltd.) were transfected with human TNAP (OriGene Technologies, Inc.) using Lipofectamine LTX & Plus reagent (Invitrogen Corp.). On the next day, the medium was replaced with a fresh medium, and the cells were cultured in an incubator for 3 days. After 3 days, the culture supernatant was collected and concentrated by centrifugation at 5000 G for 30 minutes using Amicon 14, 10^4 cut (Merck Millipore). The concentrated culture supernatant was dialyzed against 5 L of 50 mM Tris/200 mM NaCl/1 mM MgCl2/20 μM ZnCl2 twice and used as an enzyme source (enzyme solution). The substrate pNPP (ProteoChem Inc.) was adjusted to 3.1 mM with Milli-Q water, and a solution of each test compound dissolved in dimethyl sulfoxide (DMSO; Wako Pure Chemical Industries, Ltd.) by 6 serial dilutions at a 5-fold common ratio from 100 μM, or DMSO was added thereto at a final concentration of 1% by volume. The enzyme solution adjusted to 2 μg/mL with an assay buffer (200 mM Tris/2 mM MgCl2/0.04 mM ZnCl2/0.01% Tween 20) was added in the same amount of the substrate solution and incubated at room temperature for 60 minutes. Then, the absorbance (ABS: 405 nm) was measured using a microplate reader (model plus 384, Molecular Devices, LLC), and the concentration of produced p-nitrophenol was calculated."}}, "data": [{"smiles": "O=C1NCCOc2ncc([N-]S(=O)(=O)c3cc(Cl)ccc3OC(F)(F)F)cc21.[K+]", "note": "[Example 50, Potassium {[5-chloro-2-(trifluoromethoxy)phenyl]sulfonyl}(5-oxo-2,3,4,5-tetrahydropyrido[3,2-f][1,4]oxazepin-7-yl)azanide]", "values": [{"measurement": "Plasma ALP inhibition (6 h ave. inhibition %)", "setting": "[1]", "value": 56.0, "unit": "%"}]}, {"smiles": "COc1ccc(OC)c(S(=O)(=O)[N-]c2cnc3c(c2)C(=O)NC2(CC2)CO3)c1.[K+]", "note": "[Example 61, Potassium [(2,5-dimethoxyphenyl)sulfonyl](5′-oxo-4′,5′-dihydrospiro[cyclopropane-1,3′-pyrido[3,2-f][1,4]oxazepin]-7′-yl)azanide]", "values": [{"measurement": "Plasma ALP inhibition (6 h ave. inhibition %)", "setting": "[1]", "value": 67.5, "unit": "%"}]}, {"smiles": "O=C1NC2(CC2)COc2ncc([N-]S(=O)(=O)c3cc(Cl)ccc3OC(F)(F)F)cc21.[K+]", "note": "[Example 58, Potassium {[5-chloro-2-(trifluoromethoxy)phenyl]sulfonyl}(5′-oxo-4′,5′-dihydrospiro[cyclopropane-1,3′-pyrido[3,2-f][1,4]oxazepin]-7′-yl)azanide]", "values": [{"measurement": "Plasma ALP inhibition (6 h ave. inhibition %)", "setting": "[1]", "value": 50.3, "unit": "%"}]}, {"smiles": "COc1ccc(F)cc1S(=O)(=O)[N-]c1cnc2c(c1)C(=O)NCCO2.[K+]", "note": "[Example 48, Potassium [(5-fluoro-2-methoxyphenyl)sulfonyl](5-oxo-2,3,4,5-tetrahydropyrido[3,2-f][1,4]oxazepin-7-yl)azanide]", "values": [{"measurement": "Plasma ALP inhibition (6 h ave. inhibition %)", "setting": "[1]", "value": 61.6, "unit": "%"}]}, {"smiles": "COc1ccc(Cl)cc1S(=O)(=O)Nc1cnc2c(c1)C(=O)N(c1ccccn1)CCO2", "note": "[Example 38, 5-Chloro-2-methoxy-N-[5-oxo-4-(pyridin-2-yl)-2,3,4,5-tetrahydropyrido[3,2-f][1,4]oxazepin-7-yl]benzenesulfonamide]", "values": [{"measurement": "IC50", "setting": "human TNAP", "value": 24.4, "unit": "nM"}]}, {"smiles": "COc1ccc(Cl)cc1S(=O)(=O)Nc1cnc2c(c1)C(=O)N(C)[C@H](C)CO2", "note": "[Example 20, 5-Chloro-N-[(3R)-3,4-dimethyl-5-oxo-2,3,4,5-tetrahydropyrido[3,2-f][1,4]oxazepin-7-yl]-2-methoxybenzenesulfonamide]", "values": [{"measurement": "IC50", "setting": "human TNAP", "value": 27.1, "unit": "nM"}]}, {"smiles": "COc1ccc(F)cc1S(=O)(=O)Nc1cnc2c(c1)C(=O)NCCO2", "note": "[Example 10, 5-Fluoro-2-methoxy-N-(5-oxo-2,3,4,5-tetrahydropyrido[3,2-f][1,4]oxazepin-7-yl)benzenesulfonamide]", "values": [{"measurement": "IC50", "setting": "human TNAP", "value": 4, "unit": "nM"}]}, {"smiles": "COc1ccc(Cl)cc1S(=O)(=O)Nc1cnc2c(c1)C(=O)NC(C(=O)N(C)C)CO2", "note": "(centres unmarked) [Example 45, 7-{[(5-Chloro-2-methoxyphenyl)sulfonyl]amino}-N,N-dimethyl-5-oxo-2,3,4,5-tetrahydropyrido[3,2-f][1,4]oxazepine-3-carboxamide]", "values": [{"measurement": "IC50", "setting": "human TNAP", "value": 14.6, "unit": "nM"}]}, {"smiles": "O=C1NCCOc2ncc(NS(=O)(=O)c3cc(Cl)ccc3OC(F)(F)F)cc21", "note": "[Example 13, 5-Chloro-N-(5-oxo-2,3,4,5-tetrahydropyrido[3,2-f][1,4]oxazepin-7-yl)-2-(trifluoromethoxy)benzenesulfonamide]", "values": [{"measurement": "IC50", "setting": "human TNAP", "value": 3.4, "unit": "nM"}]}, {"smiles": "CC[C@H]1COc2ncc(NS(=O)(=O)c3cc(Cl)ccc3OC)cc2C(=O)N1", "note": "[Example 25, 5-Chloro-N-[(3S)-3-ethyl-5-oxo-2,3,4,5-tetrahydropyrido[3,2-f][1,4]oxazepin-7-yl]-2-methoxybenzenesulfonamide]", "values": [{"measurement": "IC50", "setting": "human TNAP", "value": 1.7, "unit": "nM"}]}, {"smiles": "COc1ccc(Cl)cc1S(=O)(=O)Nc1cnc2c(c1)C(=O)N(CCO)CCO2", "note": "[Example 6, 5-Chloro-N-[4-(2-hydroxyethyl)-5-oxo-2,3,4,5-tetrahydropyrido[3,2-f][1,4]oxazepin-7-yl]-2-methoxybenzenesulfonamide]", "values": [{"measurement": "IC50", "setting": "human TNAP", "value": 6.1, "unit": "nM"}]}, {"smiles": "COc1ccccc1S(=O)(=O)Nc1cnc2c(c1)C(=O)NCCO2", "note": "[Example 12, 2-Methoxy-N-(5-oxo-2,3,4,5-tetrahydropyrido[3,2-f][1,4]oxazepin-7-yl)benzenesulfonamide]", "values": [{"measurement": "IC50", "setting": "human TNAP", "value": 13.4, "unit": "nM"}]}, {"smiles": "COc1ccc(F)cc1S(=O)(=O)Nc1cnc2c(c1)C(=O)N(C)[C@@H](C)CO2", "note": "[Example 19, N-[(3S)-3,4-Dimethyl-5-oxo-2,3,4,5-tetrahydropyrido[3,2-f][1,4]oxazepin-7-yl]-5-fluoro-2-methoxybenzenesulfonamide]", "values": [{"measurement": "IC50", "setting": "human TNAP", "value": 6.4, "unit": "nM"}]}, {"smiles": "COc1ccc(Cl)cc1S(=O)(=O)Nc1cnc2c(c1)C(=O)NC(C(=O)N1CCOCC1)CO2", "note": "(centres unmarked) [Example 46, 5-chloro-2-methoxy-N-[3-(morpholin-4-ylcarbonyl)-5-oxo-2,3,4,5-tetrahydropyrido[3,2-f][1,4]oxazepin-7-yl]benzenesulfonamide]", "values": [{"measurement": "IC50", "setting": "human TNAP", "value": 25.2, "unit": "nM"}]}, {"smiles": "CCN1CCOc2ncc(NS(=O)(=O)c3cc(F)ccc3OC)cc2C1=O", "note": "[Example 4, N-(4-Ethyl-5-oxo-2,3,4,5-tetrahydropyrido[3,2-f][1,4]oxazepin-7-yl)-5-fluoro-2-methoxybenzenesulfonamide]", "values": [{"measurement": "IC50", "setting": "human TNAP", "value": 22.9, "unit": "nM"}]}, {"smiles": "COc1ccc(OC)c(S(=O)(=O)Nc2cnc3c(c2)C(=O)NCCO3)c1", "note": "[Example 11, 2,5-Dimethoxy-N-(5-oxo-2,3,4,5-tetrahydropyrido[3,2-f][1,4]oxazepin-7-yl)benzenesulfonamide]", "values": [{"measurement": "IC50", "setting": "human TNAP", "value": 4.8, "unit": "nM"}]}, {"smiles": "COc1ccc(Cl)cc1S(=O)(=O)Nc1cnc2c(c1)C(=O)N(C)CC(C)O2", "note": "(centres unmarked) [Example 14, 5-Chloro-N-(2,4-dimethyl-5-oxo-2,3,4,5-tetrahydropyrido[3,2-f][1,4]oxazepin-7-yl)-2-methoxybenzenesulfonamide]", "values": [{"measurement": "IC50", "setting": "human TNAP", "value": 36.2, "unit": "nM"}]}, {"smiles": "COc1ccc(Cl)cc1S(=O)(=O)Nc1cnc2c(c1)C(=O)NCCO2", "note": "[Example 9, 5-Chloro-2-methoxy-N-(5-oxo-2,3,4,5-tetrahydropyrido[3,2-f][1,4]oxazepin-7-yl)benzenesulfonamide]", "values": [{"measurement": "IC50", "setting": "human TNAP", "value": 1.4, "unit": "nM"}]}, {"smiles": "COc1ccc(F)cc1S(=O)(=O)Nc1cnc2c(c1)C(=O)N[C@@H](C)CO2", "note": "[Example 23, 5-Fluoro-2-methoxy-N-[(3S)-3-methyl-5-oxo-2,3,4,5-tetrahydropyrido[3,2-f][1,4]oxazepin-7-yl]benzenesulfonamide]", "values": [{"measurement": "IC50", "setting": "human TNAP", "value": 3.5, "unit": "nM"}]}, {"smiles": "COc1ccc(F)cc1S(=O)(=O)Nc1cnc2c(c1)C(=O)N(C)[C@H](C)CO2", "note": "[Example 21, N-[(3R)-3,4-Dimethyl-5-oxo-2,3,4,5-tetrahydropyrido[3,2-f][1,4]oxazepin-7-yl]-5-fluoro-2-methoxybenzenesulfonamide]", "values": [{"measurement": "IC50", "setting": "human TNAP", "value": 46, "unit": "nM"}]}, {"smiles": "CCOc1ccc(F)cc1S(=O)(=O)Nc1cnc2c(c1)C(=O)NC1(CC1)CO2", "note": "[Example 42, 2-Ethoxy-5-fluoro-N-(5′-oxo-4′,5′-dihydrospiro[cyclopropane-1,3′-pyrido[3,2-f][1,4]oxazepin]-7′-yl)benzenesulfonamide]", "values": [{"measurement": "IC50", "setting": "human TNAP", "value": 0.6, "unit": "nM"}]}, {"smiles": "CC[C@H]1COc2ncc(NS(=O)(=O)c3cc(Cl)ccc3OC)cc2C(=O)N1C", "note": "[Example 24, 5-Chloro-N-[(3S)-3-ethyl-4-methyl-5-oxo-2,3,4,5-tetrahydropyrido[3,2-f][1,4]oxazepin-7-yl]-2-methoxybenzenesulfonamide]", "values": [{"measurement": "IC50", "setting": "human TNAP", "value": 7.2, "unit": "nM"}]}, {"smiles": "COc1ccc(Cl)cc1S(=O)(=O)Nc1cnc2c(c1)C(=O)N[C@@H](CC(=O)N(C)C)CO2", "note": "[Example 34, 2-[(3S)-7-{[(5-Chloro-2-methoxyphenyl)sulfonyl]amino}-5-oxo-2,3,4,5-tetrahydropyrido[3,2-f][1,4]oxazepin-3-yl]-N,N-dimethylacetamide]", "values": [{"measurement": "IC50", "setting": "human TNAP", "value": 6.7, "unit": "nM"}]}, {"smiles": "COc1ccc(Cl)cc1S(=O)(=O)Nc1cnc2c(c1)C(=O)NC(c1cccnc1)CO2", "note": "(centres unmarked) [Example 44, 5-Chloro-2-methoxy-N-[5-oxo-3-(pyridin-3-yl)-2,3,4,5-tetrahydropyrido[3,2-f][1,4]oxazepin-7-yl]benzenesulfonamide]", "values": [{"measurement": "IC50", "setting": "human TNAP", "value": 1.4, "unit": "nM"}]}, {"smiles": "COc1ccc(F)cc1S(=O)(=O)Nc1cnc2c(c1)C(=O)NC1(CC1)CO2", "note": "[Example 36, 5-Fluoro-2-methoxy-N-(5′-oxo-4′,5′-dihydrospiro[cyclopropane-1,3′-pyrido[3,2-f][1,4]oxazepin]-7′-yl)benzenesulfonamide]", "values": [{"measurement": "IC50", "setting": "human TNAP", "value": 2.2, "unit": "nM"}]}, {"smiles": "COc1ccc(OC)c(S(=O)(=O)Nc2cnc3c(c2)C(=O)N[C@@H](CO)CO3)c1", "note": "[Example 30, N-[(3S)-3-(Hydroxymethyl)-5-oxo-2,3,4,5-tetrahydropyrido[3,2-f][1,4]oxazepin-7-yl]-2,5-dimethoxybenzenesulfonamide]", "values": [{"measurement": "IC50", "setting": "human TNAP", "value": 3.8, "unit": "nM"}]}]}
